The values that follow come from patent US11548884B2, “Cyclic amidine compounds for the treatment of autoimmune disease” (Hoffmann-La Roche Inc., priority 2018, dated 2023).

The target of the test is T1, human TLR7 (Homo sapiens, UniProt Q9NYK1).
T1 sequence (Q9NYK1 27-1049): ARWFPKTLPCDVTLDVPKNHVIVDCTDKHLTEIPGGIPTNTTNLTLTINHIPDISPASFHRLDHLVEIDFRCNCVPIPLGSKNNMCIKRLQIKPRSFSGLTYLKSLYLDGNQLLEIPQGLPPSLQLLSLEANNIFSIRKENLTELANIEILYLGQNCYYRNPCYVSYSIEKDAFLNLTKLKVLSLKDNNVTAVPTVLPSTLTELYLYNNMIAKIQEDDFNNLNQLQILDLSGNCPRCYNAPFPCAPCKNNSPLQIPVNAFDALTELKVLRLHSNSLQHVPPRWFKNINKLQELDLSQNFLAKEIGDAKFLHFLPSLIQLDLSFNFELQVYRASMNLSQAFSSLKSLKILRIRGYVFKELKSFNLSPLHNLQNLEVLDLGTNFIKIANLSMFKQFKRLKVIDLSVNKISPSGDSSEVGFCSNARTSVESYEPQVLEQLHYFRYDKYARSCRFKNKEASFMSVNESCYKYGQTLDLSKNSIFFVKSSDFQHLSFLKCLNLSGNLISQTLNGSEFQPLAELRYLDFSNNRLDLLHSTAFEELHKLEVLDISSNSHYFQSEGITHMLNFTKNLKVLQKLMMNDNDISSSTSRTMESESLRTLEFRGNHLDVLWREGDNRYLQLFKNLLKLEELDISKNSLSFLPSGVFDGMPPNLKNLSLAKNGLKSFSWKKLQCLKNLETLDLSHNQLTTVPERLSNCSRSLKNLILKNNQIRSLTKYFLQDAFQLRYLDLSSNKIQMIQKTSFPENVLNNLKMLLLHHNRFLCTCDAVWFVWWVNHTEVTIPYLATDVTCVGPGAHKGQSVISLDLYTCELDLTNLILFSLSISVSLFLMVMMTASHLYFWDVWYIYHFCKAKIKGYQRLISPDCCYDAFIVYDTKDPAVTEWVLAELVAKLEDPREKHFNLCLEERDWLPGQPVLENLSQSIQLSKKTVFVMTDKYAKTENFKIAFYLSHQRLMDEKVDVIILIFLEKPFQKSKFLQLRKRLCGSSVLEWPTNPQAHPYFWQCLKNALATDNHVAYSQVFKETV
Put plainly: HEK293-Blue-hTLR-7 cells assay (SEAP reporter, R848 stimulation). The test is classed as cell-based. Particulars: HEK293-Blue-hTLR7 cells, R848 ligand, 20 h incubation. On the procedure: The following tests were carried out in order to determine the activity of the compounds of formula (I) in HEK293-Blue-hTLR-7/8/9 cells assay.
HEK293-Blue-hTLR-7 Cells Assay:
A stable HEK293-Blue-hTLR-7 cell line was purchased from InvivoGen (Cat. #: hkb-htlr7, San Diego, Calif., USA). These cells were originally designed for studying the stimulation of human TLR7 by monitoring the activation of NF-κB. A SEAP (secreted embryonic alkaline phosphatase) reporter gene was placed under the control of the IFN-β minimal promoter fused to five NF-κB and AP-1-binding sites. The SEAP was induced by activating NF-κB and AP-1 via stimulating HEK-Blue hTLR7 cells with TLR7 ligands. Therefore the reporter expression was declined by TLR7 antagonist under the stimulation of a ligand, such as R848 (Resiquimod), for incubation of 20 h. The cell culture supernatant SEAP reporter activity was determined using QUANTI-Blue™ kit (Cat. #: rep-qb1, Invivogen, San Diego, Calif., USA) at a wavelength of 640 nm, a detection medium that turns purple or blue in the presence of alkaline phosphatase.
HEK293-Blue-hTLR7 cells were incubated at a density of 250,000˜450,000 cells/mL in a volume of 170 μL in a 96-well plate in Dulbecco's Modified Eagle's medium (DMEM) containing 4.5 g/L glucose, 50 U/mL penicillin, […], […], 2 mM L-glutamine, 10% (v/v) heat-inactivated fetal bovine serum with addition of 20 μL test compound in a serial dilution in the presence of final DMSO at 1% and 10 μL of 20 uM R848 in above DMEM, perform incubation under 37° C. in a CO2 incubator for 20 h. Then 20 μL of the supernatant from each well was incubated with 180 μL Quanti-blue substrate solution at 37° C. for 2 h and the absorbance was read at 620-655 nm using a spectrophotometer. The signalling pathway that TLR7 activation leads to downstream NF-κB activation has been widely accepted, and therefore similar reporter assay was modified for evaluating TLR7 antagonist.
Compound `C[C@@H]1CN(c2ccc(C#N)c3ncccc23)C[C@H](C2=Nc3cccc(N4CCNCC4)c3CN2)O1` [Example 6, 5-[(2R,6R)-2-methyl-6-(5-piperazin-1-yl-3,4-dihydroquinazolin-2-yl)morpholin-4-yl]quinoline-8-carbonitrile] came in with an IC50 of 40 nM.
As to `C[C@@H]1CN(c2ccc(C#N)c3ncccc23)C[C@H](C2=Nc3ccc(N4CCNCC4)cc3CN2)O1` [Example 7, 5-[(2R,6R)-2-methyl-6-(6-piperazin-1-yl-3,4-dihydroquinazolin-2-yl)morpholin-4-yl]quinoline-8-carbonitrile], half-maximal inhibition (IC50) required 12 nM.
In the case of `C[C@@H]1CN(c2ccc(C#N)c3ncccc23)C[C@H](C2=Nc3cc(N4CCNCC4)ccc3CN2)O1` [Example 8, 5-[(2R,6R)-2-methyl-6-(7-piperazin-1-yl-3,4-dihydroquinazolin-2-yl)morpholin-4-yl]quinoline-8-carbonitrile], inhibition was half-maximal at 18 nM (IC50).
As for `C[C@@H]1CN(c2ccc(C#N)c3ncccc23)C[C@H](C2=Nc3c(cccc3N3CCNCC3)CN2)O1` [Example 9, 5-[(2R,6R)-2-methyl-6-(8-piperazin-1-yl-3,4-dihydroquinazolin-2-yl)morpholin-4-yl]quinoline-8-carbonitrile], the figure is 36 nM.
The compound `C[C@@H]1CN(c2ccc(C#N)c3ncccc23)C[C@H](C2=Nc3cccc(N4CCN(C)CC4)c3CN2)O1` [Example 12, 5-[(2R,6R)-2-methyl-6-[5-(4-methylpiperazin-1-yl)-3,4-dihydroquinazolin-2-yl]morpholin-4-yl]quinoline-8-carbonitrile] gave an IC50 of 83 nM.
`C[C@@H]1CN(c2ccc(C#N)c3ncccc23)C[C@H](C2=Nc3cccc(N4CCC5(CCNC5)C4)c3CN2)O1` (stereo partly drawn) [Example 13, 5-[(2R,6R)-2-[5-(2,7-diazaspiro[4.4]nonan-2-yl)-3,4-dihydroquinazolin-2-yl]-6-methyl-morpholin-4-yl]quinoline-8-carbonitrile] came in with an IC50 of 294 nM.
As for `C[C@@H]1CN(c2ccc(C#N)c3ncccc23)C[C@H](C2=Nc3cccc(C4=CCNCC4)c3CCN2)O1` [Example 16, 5-[(2R,6R)-2-methyl-6-[6-(1,2,3,6-tetrahydropyridin-4-yl)-4,5-dihydro-3H-1,3-benzodiazepin-2-yl]morpholin-4-yl]quinoline-8-carbonitrile], the figure is 251 nM; as for `C[C@@H]1CN(c2ccc(C#N)c3ncccc23)C[C@H](C2=Nc3ccc(N4CCNCC4)cc3CCN2)O1` [Example 17, 5-[(2R,6R)-2-methyl-6-(7-piperazin-1-yl-4,5-dihydro-3H-1,3-benzodiazepin-2-yl)morpholin-4-yl]quinoline-8-carbonitrile], 362 nM.
The result for `C[C@@H]1CN(c2ccc(C#N)c3ncccc23)C[C@H](C2=Nc3cccc(C4CCNCC4)c3CN2)O1` [Example 18, 5-[(2R,6R)-2-methyl-6-[5-(4-piperidyl)-3,4-dihydroquinazolin-2-yl]morpholin-4-yl]quinoline-8-carbonitrile] reads 130 nM.
